# Structures can show the parent of a compound that is named as a salt.
# Tests used:
# human factor XIa = molecular target: T1, human factor XIa (Homo sapiens, UniProt P03951); assay: Measurement of FXIa inhibition (fluorogenic peptide substrate Boc-Glu(OBzl)-Ala-Arg-AMC); assay type: biochemical; settings: factor XIa from Kordia, 15 min preincubation, 30 min at 22° C., fluorescence
# T1 construct: purchased Kordia
# Description: The factor XIa inhibition of the substances according to the invention is determined using a biochemical test system which utilizes the reaction of a peptidic factor XIa substrate to determine the enzymatic activity of human factor XIa. Here, factor XIa cleaves from the peptic factor XIa substrate the C-terminal aminomethylcoumarin (AMC), the fluorescence of which is measured. The determinations are carried out in microtitre plates.
# Test substances are dissolved in dimethyl sulphoxide and serially diluted in dimethyl sulphoxide (3000 μM to 0.0078 μM; resulting final concentrations in the test: 50 μM to 0.00013 μM). In each case 1 μl of the diluted substance solutions is placed into the wells of white microtitre plates from Greiner (384 wells). Subsequently, the following are added successively: 20 μl of assay buffer (50 mmol/l Tris buffer pH 7.4; 100 mmol/l sodium chloride; 5 mmol/l calcium chloride; 0.1% bovine serum albumin) and 20 μl of factor XIa from Kordia (0.45 nM in assay buffer). After 15 min of incubation, the enzyme reaction is started by addition of 20 μl of the factor XIa substrate Boc-Glu(OBzl)-Ala-Arg-AMC dissolved in assay buffer (10 μM in assay buffer) from Bachem, the mixture is incubated at room temperature (22° C.) for 30 min and fluorescence is then measured (excitation: 360 nm, emission: 460 nm). The measured emissions of the test batches with test substance are compared to those of control batches without test substance (only dimethyl sulphoxide instead of test substance in dimethyl sulphoxide), and IC50 values are calculated from the concentration/activity relationships.
# human and animal plasma = assay: Determination of anticoagulatory activity: activated partial thromboplastin time (aPTT) in plasma; assay type: biochemical; settings: concentration of test substance which brings about a 1.5-fold extension of the aPTT, 37° C., C.K. Prest kit
# Description: The anticoagulatory activity of the test substances is determined in vitro in human and animal plasma (for example mouse, rat, rabbit, pig and dog plasma). To this end, blood is drawn off in a mixing ratio of sodium citrate/blood of 1:9 using a 0.11 molar sodium citrate solution as receiver. Immediately after the blood has been drawn off, it is mixed thoroughly and centrifuged at about 4000 g for 15 minutes. The supernatant is pipetted off.
# The activated partial thromboplastin time (aPTT) is determined in the presence of varying concentrations of test substance or the corresponding solvent using a commercial test kit (C.K. Prest from Diagnostica Stago). The test compounds are incubated with the plasma and the PTT reagent (cephalin, kaolin) at 37° C. for 3 minutes. Coagulation is then started by addition of a 25 mM aqueous calcium chloride solution, and the time when coagulation occurs is determined. The concentration of test substance which brings about a 1.5-fold extension of the aPTT is determined Activity data from this test are listed in Table B below: […]
# T1 sequence (P03951 388-625 limits assumed): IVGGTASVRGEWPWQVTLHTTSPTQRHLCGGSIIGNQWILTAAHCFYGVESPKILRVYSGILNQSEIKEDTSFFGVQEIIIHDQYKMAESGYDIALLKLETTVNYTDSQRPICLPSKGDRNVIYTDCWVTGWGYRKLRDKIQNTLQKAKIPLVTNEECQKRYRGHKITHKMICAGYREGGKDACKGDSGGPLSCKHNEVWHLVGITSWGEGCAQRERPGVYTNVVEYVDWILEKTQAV
# T1 sequence (P03951 19-387 partner limits assumed): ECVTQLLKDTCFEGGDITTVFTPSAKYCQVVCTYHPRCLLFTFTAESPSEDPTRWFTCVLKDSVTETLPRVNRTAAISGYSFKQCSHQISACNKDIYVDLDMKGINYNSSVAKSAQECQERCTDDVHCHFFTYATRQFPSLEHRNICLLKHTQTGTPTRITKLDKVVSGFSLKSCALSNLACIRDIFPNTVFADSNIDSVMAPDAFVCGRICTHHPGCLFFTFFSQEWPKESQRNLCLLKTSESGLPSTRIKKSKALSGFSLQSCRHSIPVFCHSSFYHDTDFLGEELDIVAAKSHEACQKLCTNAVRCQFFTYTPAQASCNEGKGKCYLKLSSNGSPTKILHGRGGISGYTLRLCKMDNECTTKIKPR
Structure (SMILES),IC50 (human factor XIa) [nM],aPTT (human and animal plasma) [µmol/L]
"NC[C@H]1CC[C@H](C(=O)N[C@@H](Cc2ccc(-c3cnc(N4CCOCC4)nc3)cc2)C(=O)Nc2ccc(-c3nnn[nH]3)cc2)CC1 [Example 1, N-alpha-{[trans-4-(Aminomethyl)cyclohexyl]carbonyl}-4-[2-(morpholin-4-yl)pyrimidin-5-yl]-N-[4-(1H-tetrazol-5-yl)phenyl]-L-phenylalaninamide hydrochloride]",5.7,
"CN1CCN(S(=O)(=O)c2cncc(-c3ccc(C[C@H](NC(=O)[C@H]4CC[C@H](CN)CC4)C(=O)Nc4ccc(-c5nnn[nH]5)cc4)cc3)c2)CC1 [Example 2, N-alpha-{[trans-4-(Aminomethyl)cyclohexyl]carbonyl}-4-{5-[(4-methylpiperazin-1-yl)sulphonyl]pyridin-3-yl}-N-[4-(1H-tetrazol-5-yl)phenyl]-L-phenylalaninamide hydrochloride]",5.3,0.28
"NC[C@H]1CC[C@H](C(=O)N[C@@H](Cc2ccc(-c3cccnc3Cl)cc2)C(=O)Nc2ccc(-c3nnn[nH]3)cc2)CC1 [Example 3, N-alpha-{[trans-4-(Aminomethyl)cyclohexyl]carbonyl}-4-(2-chloropyridin-3-yl)-N-[4-(1H-tetrazol-5-yl)phenyl]-L-phenylalaninamide hydrochloride]",2.3,0.24
"CN(C)c1ccc(-c2ccc(C[C@H](NC(=O)[C@H]3CC[C@H](CN)CC3)C(=O)Nc3ccc(-c4nnn[nH]4)cc3)cc2)cn1 [Example 4, N-alpha-{[trans-4-(Aminomethyl)cyclohexyl]carbonyl}-4-[6-(dimethylamino)pyridin-3-yl]-N-[4-(1H-tetrazol-5-yl)phenyl]-L-phenylalaninamide hydrochloride]",3.8,0.23
"NC[C@H]1CC[C@H](C(=O)N[C@@H](Cc2ccc(-c3cccnc3)cc2)C(=O)Nc2ccc(-c3nn[nH]n3)cc2)CC1 [Example 5, N-alpha-{[trans-4-(Aminomethyl)cyclohexyl]carbonyl}-4-pyridin-3-yl-N-[4-(2H-tetrazol-5-yl)phenyl]phenylalaninamide]",7,0.35
"CN(C)CCCOc1ccc(-c2ccc(C[C@H](NC(=O)[C@H]3CC[C@H](CN)CC3)C(=O)Nc3ccc(-c4nn[nH]n4)cc3)cc2)cn1 [Example 6, N-alpha-{[trans-4-(Aminomethyl)cyclohexyl]carbonyl}-4-{6-[3-(dimethylamino)propoxy]pyridin-3-yl}-N-[4-(2H-tetrazol-5-yl)phenyl]-L-phenylalaninamide hydrochloride]",15,
"NC[C@H]1CC[C@H](C(=O)N[C@@H](Cc2ccc(-c3ccc(N4CCOCC4)nc3)cc2)C(=O)Nc2ccc(-c3nn[nH]n3)cc2)CC1 [Example 7, N-alpha-{[trans-4-(Aminomethyl)cyclohexyl]carbonyl}-4-[6-(morpholin-4-yl)pyridin-3-yl]-N-[4-(2H-tetrazol-5-yl)phenyl]-L-phenylalaninamide hydrochloride]",2.2,0.29
"NC[C@H]1CC[C@H](C(=O)N[C@@H](Cc2ccc(-c3ccncc3)cc2)C(=O)Nc2ccc(-c3noc(=O)[nH]3)cc2)CC1 [Example 8, N-alpha-{[trans-4-(Aminomethyl)cyclohexyl]carbonyl}-N-[4-(5-oxo-4,5-dihydro-1,2,4-oxadiazol-3-yl)phenyl]-4-pyridin-4-yl-L-phenylalaninamide hydrochloride]",9.2,0.15
"NC[C@H]1CC[C@H](C(=O)N[C@@H](Cc2ccc(-c3cncc(Cl)c3)cc2)C(=O)Nc2ccc(-c3nn[nH]n3)cc2)CC1 [Example 10, N-alpha-{[trans-4-(Aminomethyl)cyclohexyl]carbonyl}-4-(5-chloropyridin-3-yl)-N-[4-(2H-tetrazol-5-yl)phenyl]-L-phenylalaninamide hydrochloride]",6.2,
"NC[C@H]1CC[C@H](C(=O)N[C@@H](Cc2ccc(-c3ccncc3)cc2)C(=O)Nc2ccc(-c3nn[nH]n3)cc2)CC1 [Example 11, N-alpha-{[trans-4-(Aminomethyl)cyclohexyl]carbonyl}-4-pyridin-4-yl-N-[4-(2H-tetrazol-5-yl)phenyl]-L-phenylalaninamide hydrochloride]",5.2,0.24
"NC[C@H]1CC[C@H](C(=O)N[C@@H](Cc2ccc(-c3cnccc3Cl)cc2)C(=O)Nc2ccc(-c3nn[nH]n3)cc2)CC1 [Example 12, N-alpha-{[trans-4-(Aminomethyl)cyclohexyl]carbonyl}-4-(4-chloropyridin-3-yl)-N-[4-(2H-tetrazol-5-yl)phenyl]-L-phenylalaninamide hydrochloride]",5.9,0.43
"Cc1ncccc1-c1ccc(C[C@H](NC(=O)[C@H]2CC[C@H](CN)CC2)C(=O)Nc2ccc(-c3nn[nH]n3)cc2)cc1 [Example 13, N-alpha-{[trans-4-(Aminomethyl)cyclohexyl]carbonyl}-4-(2-methylpyridin-3-yl)-N-[4-(2H-tetrazol-5-yl)phenyl]-L-phenylalaninamide hydrochloride]",2.1,0.13
"NC[C@H]1CC[C@H](C(=O)N[C@@H](Cc2ccc(-c3cccnc3)cc2)C(=O)Nc2ccc(-c3noc(=O)[nH]3)cc2)CC1 [Example 14, N-alpha-{[trans-4-(Aminomethyl)cyclohexyl]carbonyl}-N-[4-(5-oxo-4,5-dihydro-1,2,4-oxadiazol-3-yl)phenyl]-4-pyridin-3-yl-L-phenylalaninamide hydrochloride]",8.5,0.28
"NC[C@H]1CC[C@H](C(=O)N[C@@H](Cc2ccc(-c3ccncc3Cl)cc2)C(=O)Nc2ccc(-c3nn[nH]n3)cc2)CC1 [Example 15, N-alpha-{[trans-4-(Aminomethyl)cyclohexyl]carbonyl}-4-(3-chloropyridin-4-yl)-N-[4-(2H-tetrazol-5-yl)phenyl]-L-phenylalaninamide hydrochloride]",2.8,0.14
"NC[C@H]1CC[C@H](C(=O)N[C@@H](Cc2ccc(-c3ccc(NCCN4CCOCC4)nc3)cc2)C(=O)Nc2ccc(-c3nn[nH]n3)cc2)CC1 [Example 16, N-alpha-{[trans-4-(Aminomethyl)cyclohexyl]carbonyl}-4-(6-{[2-(morpholin-4-yl)ethyl]amino}pyridin-3-yl)-N-[4-(2H-tetrazol-5-yl)phenyl]-L-phenylalaninamide hydrochloride]",13,0.33
"NC[C@H]1CC[C@H](C(=O)N[C@@H](Cc2ccc(-c3ccc(O)nc3)cc2)C(=O)Nc2ccc(-c3nn[nH]n3)cc2)CC1 [Example 17, N-alpha-{[trans-4-(Aminomethyl)cyclohexyl]carbonyl}-4-(6-hydroxypyridin-3-yl)-N-[4-(2H-tetrazol-5-yl)phenyl]-L-phenylalaninamide hydrochloride]",10,
"COc1ccc(-c2ccc(C[C@H](NC(=O)[C@H]3CC[C@H](CN)CC3)C(=O)Nc3ccc4cn[nH]c4c3)cc2)c(C)n1 [Example 28, N-alpha-{[trans-4-(Aminomethyl)cyclohexyl]carbonyl}-N-1H-indazol-6-yl-4-(6-methoxy-2-methylpyridin-3-yl)-L-phenylalaninamide hydrochloride]",7.8,
"NC[C@H]1CC[C@H](C(=O)N[C@@H](Cc2ccc(-c3ccnc(N4CCOCC4)c3)cc2)C(=O)Nc2ccc3c(=O)[nH][nH]c3c2)CC1 [Example 36, N-alpha-{[trans-4-(Aminomethyl)cyclohexyl]carbonyl}-4-[2-(morpholin-4-yl)pyridin-4-yl]-N-(3-oxo-2,3-dihydro-1H-indazol-6-yl)-L-phenylalaninamide hydrochloride]",7.2,
"COc1ccc(-c2ccc(C[C@H](NC(=O)[C@H]3CC[C@H](CN)CC3)C(=O)Nc3ccc(-c4nn[nH]n4)cc3)cc2)cn1 [Example 38, N-alpha-{[trans-4-(Aminomethyl)cyclohexyl]carbonyl}-4-(6-methoxypyridin-3-yl)-N-[4-(2H-tetrazol-5-yl)phenyl]-L-phenylalaninamide]",4.8,
"CCOc1ncccc1-c1ccc(C[C@H](NC(=O)[C@H]2CC[C@H](CN)CC2)C(=O)Nc2ccc(-c3nn[nH]n3)cc2)cc1 [Example 42, N-alpha-{[trans-4-(Aminomethyl)cyclohexyl]carbonyl}-4-(2-ethoxypyridin-3-yl)-N-[4-(2H-tetrazol-5-yl)phenyl]-L-phenylalaninamide hydrochloride]",3,

# From patent US20160280699A1, “SUBSTITUTED PHENYLALANINE DERIVATIVES” (BAYER PHARMA AKTIENGESELLSCHAFT, priority 2013, published 2016)
